Our source for the IC50 and Ratio values is ChEMBL document CHEMBL1130879, “trans-3-Benzyl-4-hydroxy-7-chromanylbenzoic acid derivatives as antagonists of the leukotriene B4 (LTB4) receptor” (Bioorg Med Chem Lett, 1998).

The structures appear in SMILES notation.

Test [1] addresses T1, Leukotriene B4 receptor (Homo sapiens, UniProt Q9NPC1+Q15722). The test is described as follows: Ability to inhibit LTB4-induced chemotaxis of isolated human neutrophils. In kind it is functional.
Test [2] has as its target T1, Leukotriene B4 receptor. Kind of test: Ability to inhibit LTB4 binding to LTB receptors on isolated human neutrophils. Type of test: protein assay.
Test [3] in a line: Ratio of CD11b(WB) IC50 to CD11b (IC)IC50. Type of test: functional.
Test [4] concerns the target T1, Leukotriene B4 receptor. The test is described as follows: Ability to inhibit LTB4-induced CD11b up-regulation on isolated human neutrophils. In kind it is functional.
The target in test [5] is T1, Leukotriene B4 receptor. Kind of test: Ability to inhibit LTB4-induced CD11b up-regulation on isolated human neutrophils in whole blood. Type of test: functional, tissue-based.

In the case of `O=C(O)c1ccc(F)cc1-c1ccc2c(c1)OC[C@H](Cc1ccc(C(F)(F)F)cc1)[C@H]2O`, the IC50 – broadly, the midpoint of a concentration-inhibition curve – against Leukotriene B4 receptor [1] is 1800 nM; on Leukotriene B4 receptor [2], 54 nM.
On the same counts, the results for `CC(C)c1ccc(C[C@H]2COc3cc(-c4cc(F)ccc4C(=O)O)ccc3[C@@H]2O)cc1` are 210 nM and 190 nM.
With `O=C(O)c1c(-c2ccc3c(c2)OC[C@H](Cc2ccccc2)[C@H]3O)cccc1C(F)(F)F`, the IC50 on Leukotriene B4 receptor [1] is given as 24 nM; at Leukotriene B4 receptor [2], 46 nM; at Leukotriene B4 receptor [4] it was 750 nM; at Leukotriene B4 receptor [5], 890 nM. In addition, the Ratio in test [3] stood at 1.2.
In the case of `O=C(O)c1ccc(Cl)cc1-c1ccc2c(c1)OC[C@H](Cc1ccc(F)cc1)[C@H]2O`, the concentration for half-maximal inhibition (IC50) against Leukotriene B4 receptor [1] turned out to be 400 nM; at Leukotriene B4 receptor [2], 54 nM.
For `O=C(O)c1ccc(Cl)cc1-c1ccc2c(c1)OC[C@H](Cc1ccc(C(F)(F)F)cc1)[C@H]2O` the same measures were 9000 nM and 400 nM.
Take `O=C(O)c1ccc(Cl)cc1-c1ccc2c(c1)OC[C@H](Cc1ccc3ccccc3c1)[C@H]2O`: the IC50 is given as 2250 nM at Leukotriene B4 receptor [1] and 100 nM on Leukotriene B4 receptor [2].
For `O=C(O)c1cc(F)ccc1-c1ccc2c(c1)OC[C@H](Cc1ccccc1)[C@H]2O` the same measures were 300 nM and 24 nM.
Turning to `O=C(O)c1c(F)cc(F)cc1-c1ccc2c(c1)OC[C@H](Cc1ccccc1)[C@H]2O`, the IC50 at Leukotriene B4 receptor [1] was found to be 40 nM; at Leukotriene B4 receptor [2], 5 nM; against Leukotriene B4 receptor [4], 300 nM; at Leukotriene B4 receptor [5], 200 nM. The Ratio in test [3] was determined as 0.7.
As for `O=C(O)c1ccc(F)cc1-c1ccc2c(c1)OC[C@H](CCc1ccccc1)[C@H]2O`, the IC50 against Leukotriene B4 receptor [1] came out at 32 nM; on Leukotriene B4 receptor [2], 35 nM.
Consider `NS(=O)(=O)c1ccc(F)cc1-c1ccc2c(c1)OC[C@H](Cc1ccccc1)[C@H]2O`, for which the IC50 against Leukotriene B4 receptor [1] was 17 nM; at Leukotriene B4 receptor [2] it was 37 nM; against Leukotriene B4 receptor [4], 540 nM; against Leukotriene B4 receptor [5], above 10000 nM.
As for `O[C@H]1c2ccc(-c3cc(F)ccc3-c3nn[nH]n3)cc2OC[C@@H]1Cc1ccccc1`, the IC50 against Leukotriene B4 receptor [1] was determined as 110 nM; on Leukotriene B4 receptor [2], 20 nM.
On to `OCc1ccc(C(F)(F)F)cc1-c1ccc2c(c1)OC[C@H](Cc1ccccc1)[C@H]2O`, for which the IC50 was 9 nM at Leukotriene B4 receptor [1] and 1700 nM at Leukotriene B4 receptor [2].
As to `O=C(O)c1ccc(C(F)(F)F)cc1-c1ccc2c(c1)OC[C@H](Cc1ccc(Cl)cc1)[C@H]2O`, the IC50 against Leukotriene B4 receptor [1] is 58 nM; at Leukotriene B4 receptor [2], 70 nM.
As to `COC(=O)c1ccc(Cl)cc1-c1ccc2c(c1)OC[C@H](Cc1ccccc1)[C@H]2O`, the figures for the IC50 on Leukotriene B4 receptor [1] and at Leukotriene B4 receptor [2] were 6400 nM and 1700 nM, respectively.
Regarding `O=C(O)c1ccc(Cl)cc1-c1ccc2c(c1)OC[C@H](Cc1ccccc1)[C@H]2O` (stereo in doubt; 6) [listing 1 of 2 here], the IC50 against Leukotriene B4 receptor [1] is reported as 30 nM; on Leukotriene B4 receptor [2], 14 nM; against Leukotriene B4 receptor [4] it was 265 nM; on Leukotriene B4 receptor [5] it was 1300 nM.
Consider `O=C(O)c1ccc(Cl)cc1-c1ccc2c(c1)OC[C@H](Cc1ccccc1)[C@H]2O` (stereo in doubt; 6) [listing 2 of 2 here], for which the Ratio in test [3] stood at 4.9.
As for `O=C(O)c1ccc(Cl)cc1-c1ccc2c(c1)OC[C@H](Cc1ccccc1)[C@H]2O` (stereo in doubt; 7), the IC50 against Leukotriene B4 receptor [1] turned out to be 83 nM; at Leukotriene B4 receptor [2] it was 200 nM.
For `O=C(O)c1ccc(F)cc1-c1ccc2c(c1)OC[C@H](Cc1ccccc1)[C@H]2O` (stereo in doubt; 8) the same measures were 5 nM and 12 nM.
As for `O=C(O)c1ccc(F)cc1-c1ccc2c(c1)OC[C@H](Cc1ccccc1)[C@H]2O` (stereo in doubt; 9) [listing 1 of 2 here], the IC50 against Leukotriene B4 receptor [1] turned out to be 14 nM; on Leukotriene B4 receptor [2], 3 nM; at Leukotriene B4 receptor [4] it was 240 nM; at Leukotriene B4 receptor [5], 600 nM.
As for `O=C(O)c1ccc(F)cc1-c1ccc2c(c1)OC[C@H](Cc1ccccc1)[C@H]2O` (stereo in doubt; 9) [listing 2 of 2 here], in test [3], the Ratio turned out to be 2.5.
For `O=C(O)c1ccc(F)cc1-c1ccc2c(c1)OC[C@H](Cc1ccccc1)[C@H]2O` (stereo in doubt; 10) [listing 1 of 2 here], the IC50 at Leukotriene B4 receptor [1] was 5 nM; at Leukotriene B4 receptor [2], 27 nM; at Leukotriene B4 receptor [4] it was 3000 nM; against Leukotriene B4 receptor [5], 3500 nM.
Consider `O=C(O)c1ccc(F)cc1-c1ccc2c(c1)OC[C@H](Cc1ccccc1)[C@H]2O` (stereo in doubt; 10) [listing 2 of 2 here], for which, in test [3], the Ratio stood at 1.2.
In the case of `O=C(O)c1c(F)cccc1-c1ccc2c(c1)OC[C@H](Cc1ccccc1)[C@H]2O` (stereo in doubt; 12), the IC50 against Leukotriene B4 receptor [1] stood at 10 nM; at Leukotriene B4 receptor [2] it was 22 nM.
Turning to `O=C(O)c1c(F)cccc1-c1ccc2c(c1)OC[C@H](Cc1ccccc1)[C@H]2O` (stereo in doubt; 13) [listing 1 of 2 here], the IC50 was found to be 40 nM on Leukotriene B4 receptor [1], 11 nM at Leukotriene B4 receptor [2], 400 nM against Leukotriene B4 receptor [4] and 1000 nM against Leukotriene B4 receptor [5].
For `O=C(O)c1c(F)cccc1-c1ccc2c(c1)OC[C@H](Cc1ccccc1)[C@H]2O` (stereo in doubt; 13) [listing 2 of 2 here], in test [3], the Ratio worked out at 2.5.
On to `O=C(O)c1c(F)cccc1-c1ccc2c(c1)OC[C@H](Cc1ccccc1)[C@H]2O` (stereo in doubt; 14), for which the IC50 against Leukotriene B4 receptor [1] is on record as 650 nM; at Leukotriene B4 receptor [2], 240 nM.
For `O=C(O)c1ccc(C(F)(F)F)cc1-c1ccc2c(c1)OC[C@H](Cc1ccccc1)[C@H]2O` (stereo in doubt; 15) [CP-195543], the IC50 is reported as 7 nM against Leukotriene B4 receptor [1] and 13 nM on Leukotriene B4 receptor [2].
For the compound `O=C(O)c1ccc(C(F)(F)F)cc1-c1ccc2c(c1)OC[C@H](Cc1ccccc1)[C@H]2O` (stereo in doubt; 16), the Ratio in test [3] is 2.3.
As to `O=C(O)c1ccc(C(F)(F)F)cc1-c1ccc2c(c1)OC[C@H](Cc1ccccc1)[C@H]2O` (stereo in doubt; 16) [CP-195543], the IC50 turned out to be 2.4 nM at Leukotriene B4 receptor [1], 6.8 nM at Leukotriene B4 receptor [2], 280 nM at Leukotriene B4 receptor [4] and 660 nM against Leukotriene B4 receptor [5].
As to `O=C(O)c1ccc(C(F)(F)F)cc1-c1ccc2c(c1)OC[C@H](Cc1ccccc1)[C@H]2O` (stereo in doubt; 17) [CP-195543], the IC50 is recorded as 2 nM at Leukotriene B4 receptor [1] and 56 nM at Leukotriene B4 receptor [2].
As for `O=C(O)c1ccc(Cl)cc1-c1ccc2c(c1)OC[C@H](Cc1ccc(-c3ccccc3)cc1)[C@H]2O` (stereo in doubt; 22) [listing 1 of 2 here], the IC50 at Leukotriene B4 receptor [1] is 6 nM; on Leukotriene B4 receptor [2], 4 nM; on Leukotriene B4 receptor [4], 520 nM; against Leukotriene B4 receptor [5], 1700 nM.
For `O=C(O)c1ccc(Cl)cc1-c1ccc2c(c1)OC[C@H](Cc1ccc(-c3ccccc3)cc1)[C@H]2O` (stereo in doubt; 22) [listing 2 of 2 here], the Ratio in test [3] stood at 3.3.
On to `O=C(O)c1ccc(Cl)cc1-c1ccc2c(c1)OC[C@H](Cc1ccc(-c3ccccc3)cc1)[C@H]2O` (stereo in doubt; 23) [listing 1 of 2 here], for which the IC50 on Leukotriene B4 receptor [1] worked out at 26 nM; at Leukotriene B4 receptor [2] it was 8 nM; at Leukotriene B4 receptor [4], 590 nM; against Leukotriene B4 receptor [5], 3900 nM.
Turning to `O=C(O)c1ccc(Cl)cc1-c1ccc2c(c1)OC[C@H](Cc1ccc(-c3ccccc3)cc1)[C@H]2O` (stereo in doubt; 23) [listing 2 of 2 here], the Ratio in test [3] was determined as 6.6.
Regarding `O=C(O)c1ccc(F)cc1-c1ccc2c(c1)OC[C@H](Cc1ccc(-c3ccccc3)cc1)[C@H]2O` (stereo in doubt; 24) [listing 1 of 2 here], the IC50 on Leukotriene B4 receptor [1] is listed as 56 nM; at Leukotriene B4 receptor [2], 4 nM; against Leukotriene B4 receptor [4], 280 nM; against Leukotriene B4 receptor [5], 700 nM.
In the case of `O=C(O)c1ccc(F)cc1-c1ccc2c(c1)OC[C@H](Cc1ccc(-c3ccccc3)cc1)[C@H]2O` (stereo in doubt; 24) [listing 2 of 2 here], the Ratio in test [3] is 2.5.
For `O=C(O)c1ccc(F)cc1-c1ccc2c(c1)OC[C@H](Cc1ccc(-c3ccccc3)cc1)[C@H]2O` (stereo in doubt; 25) [listing 1 of 2 here], the IC50 is on record as 5 nM at Leukotriene B4 receptor [1], 14 nM at Leukotriene B4 receptor [2], 700 nM against Leukotriene B4 receptor [4] and 5100 nM against Leukotriene B4 receptor [5].
Take `O=C(O)c1ccc(F)cc1-c1ccc2c(c1)OC[C@H](Cc1ccc(-c3ccccc3)cc1)[C@H]2O` (stereo in doubt; 25) [listing 2 of 2 here]: the Ratio in test [3] stood at 7.3.
As to `O=C(O)c1ccc(C(F)(F)F)cc1-c1ccc2c(c1)OC[C@H](Cc1ccc(-c3ccccc3)cc1)[C@H]2O` (stereo in doubt; 26) [listing 1 of 2 here], the IC50 against Leukotriene B4 receptor [1] is on record as 6 nM; at Leukotriene B4 receptor [2], 38 nM; on Leukotriene B4 receptor [4], 120 nM; on Leukotriene B4 receptor [5], 1900 nM.
In the case of `O=C(O)c1ccc(C(F)(F)F)cc1-c1ccc2c(c1)OC[C@H](Cc1ccc(-c3ccccc3)cc1)[C@H]2O` (stereo in doubt; 26) [listing 2 of 2 here], in test [3], the Ratio is 15.8.
Take `O=C(O)c1ccc(C(F)(F)F)cc1-c1ccc2c(c1)OC[C@H](Cc1ccc(-c3ccccc3)cc1)[C@H]2O` (stereo in doubt; 27) [listing 1 of 2 here]: the IC50 against Leukotriene B4 receptor [1] amounted to 7 nM; on Leukotriene B4 receptor [2], 27 nM; at Leukotriene B4 receptor [4], 820 nM; against Leukotriene B4 receptor [5], 4000 nM.
With `O=C(O)c1ccc(C(F)(F)F)cc1-c1ccc2c(c1)OC[C@H](Cc1ccc(-c3ccccc3)cc1)[C@H]2O` (stereo in doubt; 27) [listing 2 of 2 here], in test [3], the Ratio is 4.9.
In the case of `O=S(=O)(Nc1ccc(F)cc1-c1ccc2c(c1)OC[C@H](Cc1ccccc1)[C@H]2O)C(F)(F)F` (stereo in doubt; 38) [listing 1 of 2 here], the IC50 is on record as 15 nM against Leukotriene B4 receptor [1], 3.8 nM at Leukotriene B4 receptor [2], 360 nM against Leukotriene B4 receptor [4] and 330 nM on Leukotriene B4 receptor [5].
On to `O=S(=O)(Nc1ccc(F)cc1-c1ccc2c(c1)OC[C@H](Cc1ccccc1)[C@H]2O)C(F)(F)F` (stereo in doubt; 38) [listing 2 of 2 here], for which the Ratio in test [3] was 0.9.
Regarding `O=S(=O)(Nc1ccc(F)cc1-c1ccc2c(c1)OC[C@H](Cc1ccccc1)[C@H]2O)C(F)(F)F` (stereo in doubt; 39), the IC50 against Leukotriene B4 receptor [1] is reported as 44 nM; at Leukotriene B4 receptor [2], 50 nM; on Leukotriene B4 receptor [4], above 3000 nM; on Leukotriene B4 receptor [5] it was above 3000 nM.
